The text below walks through data of patent publication US9284333B2, “Fused pyrroledicarboxamides and their use as pharmaceuticals” (SANOFI, priority 2012, dated 2016).

Human TASK-1 channels, sequence (O14649 whole entry): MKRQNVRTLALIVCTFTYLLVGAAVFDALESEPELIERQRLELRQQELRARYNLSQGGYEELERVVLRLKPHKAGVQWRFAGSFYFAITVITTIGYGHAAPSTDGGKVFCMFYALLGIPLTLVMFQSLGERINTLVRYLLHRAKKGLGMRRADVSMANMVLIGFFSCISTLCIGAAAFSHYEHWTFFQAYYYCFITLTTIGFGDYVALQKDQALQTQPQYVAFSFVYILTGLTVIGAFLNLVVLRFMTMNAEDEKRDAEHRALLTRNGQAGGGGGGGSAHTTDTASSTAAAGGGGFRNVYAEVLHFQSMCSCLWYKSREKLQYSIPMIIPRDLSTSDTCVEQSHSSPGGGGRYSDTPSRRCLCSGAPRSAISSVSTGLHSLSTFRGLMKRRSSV

The target of the first experiment is Human TASK-1 channels (Homo sapiens (Human), UniProt O14649). Description: Determination of the activity on the TASK-1 channel in Xenopus oocytes (two-microelectrode voltage clamp). The format is cell-based. The note with it: compound concentration 5 μM. The method, then:
Determination of the activity on the TASK-1 channel in Xenopus oocytes
Human TASK-1 channels were expressed in Xenopus oocytes. For this purpose, oocytes were isolated from Xenopus laevis and defoliculated. Subsequently, TASK-1-encoding RNA synthesized in vitro was injected into the oocytes. After two days of TASK-1 protein expression, TASK-1 currents were measured by two-microelectrode voltage clamp. Data were acquired and analyzed using a TEC-10cx amplifier (NPI Electronic, Tamm, Germany) connected to an ITC-16 interface (Instrutech Corp., Long Island, USA) and Pulse software (HEKA Elektronik, Lambrecht, Germany). Oocytes were clamped to −90 mV and TASK-1 mediated currents were measured during 500 ms voltage pulses to 40 mV. Oocytes were continuously superfused with ND96 buffer containing 96 mM sodium chloride, 2 mM potassium chloride, 1.8 mM calcium chloride, 1 mM magnesium chloride, 5 mM 4-(2-hydroxyethyl)-piperazine-1-ethanesulfonic acid (HEPES; pH adjusted to 7.4 with sodium hydroxide). All experiments were performed at room temperature. Test compounds were consecutively added to the bath solution at rising concentrations. Compound effects were calculated as the percentage inhibition of TASK-1 control current before compound addition. IC50 values were obtained by fitting the data to the general dose-response equation.
By inhibition is commonly meant the share of the control response that was lost under treatment. Read a high inhibition as a response far below the control. Compound `CC(C)[C@@H](NC(=O)c1cc(C(=O)N2CCC[C@@H]2C)c2n1CCOC2)c1ccc(C(F)(F)F)nc1` [16po, 8-((S)-2-Methyl-pyrrolidine-1-carbonyl)-3,4-dihydro-1H-pyrrolo[2,1-c][1,4]oxazine-6-carboxylic acid [(R)-2-methyl-1-(6-trifluoromethyl-pyridin-3-yl)-propyl]-amide] returned an inhibition at 5 µM of 71%.

For `CC[C@@H](NC(=O)c1cc(C(=O)N2CCC[C@@H]2C)n2c1COCC2)c1cnc(C(F)(F)F)nc1` [16bt, 6-((S)-2-Methyl-pyrrolidine-1-carbonyl)-3,4-dihydro-1H-pyrrolo[2,1-c][1,4]oxazine-8-carboxylic acid [(R)-1-(2-trifluoromethyl-pyrimidin-5-yl)-propyl]-amide], the inhibition at 5 µM came out at 47%.

The compound `CC[C@@H](NC(=O)c1cc(C(=O)Nc2cncc(F)c2)n2c1CCCC2)c1ccccc1` [16ne, 5,6,7,8-Tetrahydro-indolizine-1,3-dicarboxylic acid 3-[(5-fluoro-pyridin-3-yl)-amide] 1-[((R)-1-phenyl-propyl)-amide]] came in with an inhibition at 5 µM of 83%.

Still in this experiment, the particulars now being: human TASK-1 expressed in Xenopus oocytes, room temperature; read-out: IC50 value for TASK-1 inhibition.
Broadly, the IC50 is the point on the concentration scale where inhibition reaches its midpoint. For the compound `CC[C@@H](NC(=O)c1cc(C(=O)N[C@H](C)c2ccc(F)cc2)c2n1CCS2)c1ccccc1` [16ku, 2,3-Dihydro-pyrrolo[2,1-b]thiazole-5,7-dicarboxylic acid 7-{[(R)-1-(4-fluoro-phenyl)-ethyl]-amide} 5-[((R)-1-phenyl-propyl)-amide]], the IC50 amounted to 87 nM.

For the compound `CCC(NC(=O)c1cc(C(=O)N[C@H](CC)c2ccccc2)c2n1CCOC2)c1nccs1` (stereo partly drawn) [16ij, 3,4-Dihydro-1H-pyrrolo[2,1-c][1,4]oxazine-6,8-dicarboxylic acid 8-[((R)-1-phenyl-propyl)-amide] 6-[(1-thiazol-2-yl-propyl)-amide]], the IC50 was 170 nM.

Regarding `CC[C@@H](NC(=O)c1cc(C(=O)N[C@H](CC)c2cccc(C(=O)O)c2)n2c1COCC2)c1ccccc1` [16rm, 3-((R)-1-{[8-((R)-1-Phenyl-propylcarbamoyl)-3,4-dihydro-1H-pyrrolo[2,1-c][1,4]oxazine-6-carbonyl]-amino}-propyl)-benzoic acid], the IC50 worked out at 4900 nM.

As for `CC[C@@H](NC(=O)c1cc(C(=O)N2CCC[C@@H]2C)c2n1CCOC2)c1ccccc1C(F)(F)F` [16ni, 8-((S)-2-Methyl-pyrrolidine-1-carbonyl)-3,4-dihydro-1H-pyrrolo[2,1-c][1,4]oxazine-6-carboxylic acid [(R)-1-(2-trifluoromethyl-phenyl)-propyl]-amide], the IC50 was 290 nM.

As to `CC[C@@H](NC(=O)c1cc(C(=O)NCc2ccc(CC(=O)OC)cc2)n2c1COCC2)c1ccccc1` [16is, [4-({[8-((R)-1-Phenyl-propylcarbamoyl)-3,4-dihydro-1H-pyrrolo[2,1-c][1,4]oxazine-6-carbonyl]-amino}-methyl)-phenyl]-acetic acid methyl ester], the IC50 was 1700 nM.

As for `CC[C@@H](NC(=O)c1cc(C(=O)N2CCCC2COC(F)(F)F)n2c1COCC2)c1ccccc1` (stereo partly drawn) [16en, 6-(2-Trifluoromethoxymethyl-pyrrolidine-1-carbonyl)-3,4-dihydro-1H-pyrrolo[2,1-c][1,4]oxazine-8-carboxylic acid ((R)-1-phenyl-propyl)-amide], the IC50 was found to be 180 nM.

As for `CC[C@@H](NC(=O)c1cc(C(=O)NCCC2CC2)n2c1COCC2)c1ccccc1` [16gk, 3,4-Dihydro-1H-pyrrolo[2,1-c][1,4]oxazine-6,8-dicarboxylic acid 6-[(2-cyclopropyl-ethyl)-amide] 8-[((R)-1-phenyl-propyl)-amide]], the IC50 is 36 nM.

Take `CC[C@@H](NC(=O)c1cc(C(=O)N2CCC[C@@H]2C)n2c1COCC2)c1cnc(OC)c(C(F)(F)F)c1` [16cn, 6-((S)-2-Methyl-pyrrolidine-1-carbonyl)-3,4-dihydro-1H-pyrrolo[2,1-c][1,4]oxazine-8-carboxylic acid [(R)-1-(6-methoxy-5-trifluoromethyl-pyridin-3-yl)-propyl]-amide]: the IC50 worked out at 100 nM.

As to `CC[C@@H](NC(=O)c1cc(C(=O)NC(C)c2nnnn2C)n2c1COCC2)c1ccccc1` (stereo partly drawn) [16ro, 3,4-dihydro-1H-pyrrolo[2,1-c][1,4]oxazine-6,8-dicarboxylic acid 6-{[1-(1-methyl-1H-tetrazol-5-yl)-ethyl]-amide} 8-[((R)-1-phenyl-propyl)-amide]], the half-inhibitory concentration (IC50) came out at 2800 nM.

Consider `CC[C@@H](NC(=O)c1cc(C(=O)N2CCCC2c2ncccn2)n2c1COCC2)c1ccccc1` (stereo partly drawn) [16fz, 6-(2-Pyrimidin-2-yl-pyrrolidine-1-carbonyl)-3,4-dihydro-1H-pyrrolo[2,1-c][1,4]oxazine-8-carboxylic acid ((R)-1-phenyl-propyl)-amide], for which the IC50 was determined as 5100 nM.

On to `C[C@H]1CCCN1C(=O)c1cc(C(=O)N[C@@H]2CCc3nc(C(F)(F)F)ccc32)c2n1CCOC2` (racemic) [16cv, 6-((S)-2-Methyl-pyrrolidine-1-carbonyl)-3,4-dihydro-1H-pyrrolo[2,1-c][1,4]oxazine-8-carboxylic acid ((R)-2-trifluoromethyl-6,7-dihydro-5H-[1]pyrindin-5-yl)-amide], for which the IC50 came out at 900 nM.

`CC[C@@H](NC(=O)c1cc(C(=O)NCC(C)(C)O)n2c1COCC2)c1ccccc1` [16jd, 3,4-Dihydro-1H-pyrrolo[2,1-c][1,4]oxazine-6,8-dicarboxylic acid 6-[(2-hydroxy-2-methyl-propyl)-amide] 8-[((R)-1-phenyl-propyl)-amide]]: the IC50 was found to be 2500 nM.

For the compound `CC[C@@H](NC(=O)c1cc(C(=O)N(C)CC2CCOCC2)n2c1COCC2)c1ccccc1` [16gd, 3,4-Dihydro-1H-pyrrolo[2,1-c][1,4]oxazine-6,8-dicarboxylic acid 6-[methyl-(tetrahydro-pyran-4-ylmethyl)-amide] 8-[((R)-1-phenyl-propyl)-amide]], the IC50 was 5400 nM.

With `CC[C@@H](NC(=O)c1c(C)c(C(=O)N2CCC[C@@H]2C)n2c1COCC2)c1ccc(C(F)(F)F)nc1` [16rx, 7-Methyl-6-((S)-2-methyl-pyrrolidine-1-carbonyl)-3,4-dihydro-1H-pyrrolo[2,1-c][1,4]oxazine-8-carboxylic acid [(R)-1-(6-trifluoromethyl-pyridin-3-yl)-propyl]-amide], the IC50 was 4700 nM.

Consider `CC[C@@H](NC(=O)c1cc(C(=O)N[C@H](C)C2CC2)n2c1CCCC2)c1ccccc1` [16mw, 5,6,7,8-Tetrahydro-indolizine-1,3-dicarboxylic acid 3-[((R)-1-cyclopropyl-ethyl)-amide] 1-[((R)-1-phenyl-propyl)-amide]], for which the IC50 was determined as 74 nM.

Take `CCC(NC(=O)c1cc(C(=O)N2CCCC2)n2c1COCC2)c1ccccc1OC(F)F` (centres unmarked) [16cz, 6-(Pyrrolidine-1-carbonyl)-3,4-dihydro-1H-pyrrolo[2,1-c][1,4]oxazine-8-carboxylic acid [1-(2-difluoromethoxy-phenyl)-propyl]-amide]: the IC50 amounted to 310 nM.

For `CC[C@@H](NC(=O)c1cc(C(=O)N2CCC[C@@H]2C)n2c1COCC2)c1ccc(OC(F)(F)F)cc1` [16aw, 6-((S)-Methyl-pyrrolidine-1-carbonyl)3,4-dihydro-1H-pyrrolo[2,1-c][1,4]oxazine-8-carboxylic acid [(R)-1-(4-trifluoromethoxy-phenyl)-propyl]-amide], the half-inhibitory concentration (IC50) amounted to 280 nM.

Take `CC[C@@H](NC(=O)c1cc(C(=O)N2CCCC2)n2c1COCC2)c1ccccc1C(F)(F)F` [16da, 6-(Pyrrolidine-1-carbonyl)-3,4-dihydro-1H-pyrrolo[2,1-c][1,4]oxazine-8-carboxylic acid [(R)-1-(2-trifluoromethyl-phenyl)-propyl]-amide]: the IC50 was found to be 440 nM.

On to `O=C(NC(c1ccccc1)c1ccccc1)c1cc(C(=O)N2CCCC2)n2c1COCC2` [16di, 6-(Pyrrolidine-1-carbonyl)-3,4-dihydro-1H-pyrrolo[2,1-c][1,4]oxazine-8-carboxylic acid benzhydryl-amide], for which the IC50 was 1200 nM.

Consider `CC[C@@H](NC(=O)c1cc(C(=O)N2CC[C@H](OC)C2)n2c1COCC2)c1ccc(F)cc1Cl` [16nn, 6-((S)-3-Methoxy-pyrrolidine-1-carbonyl)-3,4-dihydro-1H-pyrrolo[2,1-c][1,4]oxazine-8-carboxylic acid [(R)-1-(2-chloro-4-fluoro-phenyl)-propyl]-amide], for which the IC50 was 270 nM.

Consider `CC[C@@H](NC(=O)c1cc(C(=O)N[C@H](CC)c2ncccc2OC)n2c1COCC2)c1ccccc1` [16ia, 3,4-Dihydro-1H-pyrrolo[2,1-c][1,4]oxazine-6,8-dicarboxylic acid 6-{[(R)-1-(3-methoxy-pyridin-2-yl)-propyl]-amide} 8-[((R)-1-phenyl-propyl)-amide]], for which the IC50 came to 120 nM.

Take `CC[C@@H](NC(=O)c1cc(C(=O)N2CCC[C@@H]2C)n2c1CSCC2)c1ccccc1` [16kz, 6-((S)-2-Methyl-pyrrolidine-1-carbonyl)-3,4-hihydro-1H-pyrrolo[2,1-c][1,4]thiazine-8-carboxylic acid ((R)-1-phenyl-propyl)-amide]: the IC50 was 270 nM.

Take `CC[C@@H](NC(=O)c1cc(C(=O)N2CCC[C@@H]2C)n2c1COCC2)c1ccc(OC)nc1` [16ai, 6-((S)-2-Methyl-pyrrolidine-1-carbonyl)-3,4-dihydro-1H-pyrrolo[2,1-c][1,4]oxazine-8-carboxylic acid [(R)-1-(6-methoxy-pyridin-3-yl)-propyl]-amide]: the IC50 amounted to 1400 nM.
